Data from the supplement of paper PMC10307832.

How the values were obtained:
Assay in all cases: relative viability (nuclei count vs DMSO), 5 days (fraction); higher = more cells survive
COR-L 105 = system: COR-L 105
Outline: (§1)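 Values are medians from duplicate plates. Each reflects relative viability, defined as the nuclei count of treated wells over that of vehicle wells. Lung cancer cell lines in 1536-well plates were pin-tool dosed one day after seeding with one drug alone or with a fixed anchor-drug dose plus five library-drug doses (not always all listed) in √10 steps, then fixed, stained and imaged at 4× after 5 days.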

NCI-H1915 = system: NCI-H1915
Outline: as §1

EKVX = system: EKVX
Outline: as §1

NCI-H1944 = system: NCI-H1944
Outline: as §1

LXF-289 = system: LXF-289
Outline: as §1

PC-3 [JPC-3] = system: PC-3 [JPC-3]
Outline: as §1

NCI-H1793 = system: NCI-H1793
Outline: as §1

CAL-12T = system: CAL-12T
Outline: as §1

SK-MES-1 = system: SK-MES-1
Outline: as §1

NCI-H1437 = system: NCI-H1437
Outline: as §1

NCI-H2085 = system: NCI-H2085
Outline: as §1

NCI-H1651 = system: NCI-H1651
Outline: as §1

LC-2-ad = system: LC-2-ad
Outline: as §1

NCI-H1755 = system: NCI-H1755
Outline: as §1

SK-LU-1 = system: SK-LU-1
Outline: as §1

LK-2 = system: LK-2
Outline: as §1

EMC-BAC-2 = system: EMC-BAC-2
Outline: as §1

NCI-H2228 = system: NCI-H2228
Outline: as §1

H3255 = system: H3255
Outline: as §1

NCI-H2087 = system: NCI-H2087
Outline: as §1

NCI-H2347 = system: NCI-H2347
Outline: as §1

NCI-H1395 = system: NCI-H1395
Outline: as §1

NCI-H661 = system: NCI-H661
Outline: as §1

SMILES: O=C(O)CCCCC(CCSCc1ccccc1)SCc1ccccc1 (centres undefined) [CPI-613] + CS(=O)(=O)CCNCc1ccc(-c2ccc3ncnc(Nc4ccc(OCc5cccc(F)c5)c(Cl)c4)c3c2)o1 [Lapatinib] (partner 2 µM)
- relative viability (COR-L 105; first compound 5 µM): 0.364
- relative viability (COR-L 105; first compound 15.81 µM): 0.323
- relative viability (COR-L 105; first compound 50 µM): 0.377
- relative viability (COR-L 105; first compound 158.11 µM): 0.291
- relative viability (COR-L 105; first compound 500 µM): 0.263
- relative viability (NCI-H1915; first compound 5 µM): 0.948
- relative viability (NCI-H1915; first compound 15.81 µM): 1.02
- relative viability (NCI-H1915; first compound 50 µM): 0.948
- relative viability (NCI-H1915; first compound 158.11 µM): 0.873
- relative viability (NCI-H1915; first compound 500 µM): 0.832
- relative viability (EKVX; first compound 5 µM): 0.186
- relative viability (EKVX; first compound 15.81 µM): 0.208
- relative viability (EKVX; first compound 50 µM): 0.218
- relative viability (EKVX; first compound 158.11 µM): 0.193
- relative viability (EKVX; first compound 500 µM): 0.206
- relative viability (NCI-H1944; first compound 5 µM): 0.818
- relative viability (NCI-H1944; first compound 15.81 µM): 0.725
- relative viability (NCI-H1944; first compound 50 µM): 0.753
- relative viability (NCI-H1944; first compound 158.11 µM): 0.77
- relative viability (NCI-H1944; first compound 500 µM): 0.632
- relative viability (LXF-289; first compound 5 µM): 0.842
- relative viability (LXF-289; first compound 15.81 µM): 0.881
- relative viability (LXF-289; first compound 50 µM): 0.835
- relative viability (LXF-289; first compound 158.11 µM): 0.585
- relative viability (LXF-289; first compound 500 µM): 0.0115
- relative viability (PC-3 [JPC-3]; first compound 5 µM): 0.493
- relative viability (PC-3 [JPC-3]; first compound 15.81 µM): 0.439
- relative viability (PC-3 [JPC-3]; first compound 50 µM): 0.425
- relative viability (PC-3 [JPC-3]; first compound 158.11 µM): 0.415
- relative viability (PC-3 [JPC-3]; first compound 500 µM): 0.407
- relative viability (NCI-H1793; first compound 5 µM): 0.683
- relative viability (NCI-H1793; first compound 50 µM): 0.732
- relative viability (NCI-H1793; first compound 158.11 µM): 0.306
- relative viability (NCI-H1793; first compound 500 µM): 0.0696
- relative viability (CAL-12T; first compound 5 µM): 0.605
- relative viability (CAL-12T; first compound 15.81 µM): 0.532
- relative viability (CAL-12T; first compound 50 µM): 0.603
- relative viability (CAL-12T; first compound 158.11 µM): 0.551
- relative viability (CAL-12T; first compound 500 µM): 0.56
- relative viability (SK-MES-1; first compound 5 µM): 0.458
- relative viability (SK-MES-1; first compound 15.81 µM): 0.399
- relative viability (SK-MES-1; first compound 50 µM): 0.428
- relative viability (SK-MES-1; first compound 158.11 µM): 0.408
- relative viability (SK-MES-1; first compound 500 µM): 0.458
- relative viability (NCI-H1437; first compound 5 µM): 0.772
- relative viability (NCI-H1437; first compound 15.81 µM): 0.685
- relative viability (NCI-H1437; first compound 50 µM): 0.746
- relative viability (NCI-H1437; first compound 158.11 µM): 0.185
- relative viability (NCI-H1437; first compound 500 µM): 0.0285
- relative viability (NCI-H2085; first compound 5 µM): 0.813
- relative viability (NCI-H2085; first compound 15.81 µM): 0.728
- relative viability (NCI-H2085; first compound 50 µM): 0.709
- relative viability (NCI-H2085; first compound 158.11 µM): 0.674
- relative viability (NCI-H2085; first compound 500 µM): 0.516
- relative viability (NCI-H1651; first compound 5 µM): 0.732
- relative viability (NCI-H1651; first compound 15.81 µM): 0.71
- relative viability (NCI-H1651; first compound 50 µM): 0.781
- relative viability (NCI-H1651; first compound 158.11 µM): 0.312
- relative viability (NCI-H1651; first compound 500 µM): 0.0775
- relative viability (LC-2-ad; first compound 5 µM): 0.746
- relative viability (LC-2-ad; first compound 15.81 µM): 0.859
- relative viability (LC-2-ad; first compound 50 µM): 0.868
- relative viability (LC-2-ad; first compound 158.11 µM): 0.255
- relative viability (LC-2-ad; first compound 500 µM): 0.0059
- relative viability (NCI-H1755; first compound 5 µM): 0.997
- relative viability (NCI-H1755; first compound 15.81 µM): 0.996
- relative viability (NCI-H1755; first compound 50 µM): 1
- relative viability (NCI-H1755; first compound 158.11 µM): 0.969
- relative viability (NCI-H1755; first compound 500 µM): 0.232
- relative viability (SK-LU-1; first compound 5 µM): 0.818
- relative viability (SK-LU-1; first compound 15.81 µM): 0.692
- relative viability (SK-LU-1; first compound 50 µM): 0.752
- relative viability (SK-LU-1; first compound 158.11 µM): 0.587
- relative viability (SK-LU-1; first compound 500 µM): 0.379
- relative viability (LK-2; first compound 5 µM): 0.967
- relative viability (LK-2; first compound 15.81 µM): 0.864
- relative viability (LK-2; first compound 50 µM): 0.876
- relative viability (LK-2; first compound 158.11 µM): 0.905
- relative viability (LK-2; first compound 500 µM): 0.853
- relative viability (EMC-BAC-2; first compound 5 µM): 0.827
- relative viability (EMC-BAC-2; first compound 15.81 µM): 0.86
- relative viability (EMC-BAC-2; first compound 50 µM): 0.847
- relative viability (EMC-BAC-2; first compound 158.11 µM): 0.954
- relative viability (EMC-BAC-2; first compound 500 µM): 0.0887
- relative viability (NCI-H2228; first compound 5 µM): 0.817
- relative viability (NCI-H2228; first compound 15.81 µM): 0.979
- relative viability (NCI-H2228; first compound 50 µM): 0.832
- relative viability (NCI-H2228; first compound 158.11 µM): 0.406
- relative viability (NCI-H2228; first compound 500 µM): 0.0151
- relative viability (H3255; first compound 5 µM): 0.234
- relative viability (H3255; first compound 15.81 µM): 0.253
- relative viability (H3255; first compound 50 µM): 0.291
- relative viability (H3255; first compound 158.11 µM): 0.256
- relative viability (H3255; first compound 500 µM): 0.25
- relative viability (NCI-H2087; first compound 5 µM): 1.06
- relative viability (NCI-H2087; first compound 15.81 µM): 0.934
- relative viability (NCI-H2087; first compound 50 µM): 0.72
- relative viability (NCI-H2087; first compound 158.11 µM): 0.525
- relative viability (NCI-H2087; first compound 500 µM): 0.012
- relative viability (NCI-H2347; first compound 5 µM): 0.986
- relative viability (NCI-H2347; first compound 15.81 µM): 0.846
- relative viability (NCI-H2347; first compound 50 µM): 0.762
- relative viability (NCI-H2347; first compound 158.11 µM): 0.563
- relative viability (NCI-H2347; first compound 500 µM): 0.766
- relative viability (NCI-H1395; first compound 5 µM): 1.01
- relative viability (NCI-H1395; first compound 15.81 µM): 0.91
- relative viability (NCI-H1395; first compound 50 µM): 1.08
- relative viability (NCI-H1395; first compound 158.11 µM): 0.773
- relative viability (NCI-H1395; first compound 500 µM): 0.894
- relative viability (NCI-H661; first compound 5 µM): 0.419
- relative viability (NCI-H661; first compound 15.81 µM): 0.367
- relative viability (NCI-H661; first compound 50 µM): 0.581
- relative viability (NCI-H661; first compound 158.11 µM): 0.49
- relative viability (NCI-H661; first compound 500 µM): 0.576
